From article PMC12935787, “Clinical pharmacokinetics and pharmacometabolomics of Andrographis paniculata capsules: Bridging drug disposition and metabolic response to precision medicine” (Naunyn-Schmiedeberg's Archives of Pharmacology, 2025)
Like-named read-outs stand apart in the source and are kept apart here.

Experiments:
[1] = design: method as in Panossian et al. [2000]; details: single dose of AP equivalent to 20 mg andrographolide; ref Panossian et al. [2000]; cited from earlier work
[2] = Clinical pharmacokinetics, plasma LC-MS/MS after single oral dose of AP capsules; type: in vivo, human (healthy volunteers); details: human, plasma, oral, 2000 mg, 2000 mg AP capsules, read-out: Plasma concentration; for concentration at 0.5 h: 0.50 h; for concentration at 1.5 h: 1.50 h; for concentration at 2.5 h: 2.50 h; for concentration at 3.5 h: 3.50 h
Method: The protocol was published (Tee et al. [2022]).
Seven calibrators ranging from 1, 2, 5,10, 20, 50, and 100 ng mL^−1 were prepared. Frozen plasma was thawed, vortexed-mixes, and processed via protein precipitation: 50 µL plasma plus 100 µL 0.01% ammonia in methanol were vortexed (20 s), centrifuged (14800 rpm, 5 min) and […] supernatant was transferred to 2 mL vials with inserts. LC–MS/MS injection volume: 10 µL. The separation used a Phenomenex Gemini-NX C18 column (150 × 2.1 mm, 5 μm) with 0.01% ammonia (A) and acetonitrile/methanol (1:1, B) as mobile phases (0.30 mL min^-1). The gradient program: 40% B (0 min), linear increase to 95% B (3 min), hold to 5 min, sharp decrease to 10% B (5.01 min), hold to 7 min, return to 40% B (7.01 min), and re-equilibration to 10 min. Mass detection employed an LCMS-8060NX triple quadrupole with heated ESI in negative mode, monitoring specific MRM transitions: andrographolide (349.3 → 331.2/287.1), 14-deoxyandrographolide (331.2 → 108.0/301.1), and neoandrographolide (479.1 → 317.4/161.1).
Pharmacokinetic parameters were determined from plasma samples (5 subjects, 15 time points) analyzed via LC–MS/MS (Shimadzu 8060NX). […] Specific MRM transitions for andrographolide, 14-deoxyandrographolide, and neoandrographolide in plasma samples of subjects are illustrated in Figure S3. […] The dose-dependent concentration–time curves, pharmacokinetics profiles (Fig. 2a, b and c) and comprehensive individual PK data (Table S4) provide a foundation for developing personalized AP dosing regimens, supporting its precision medicine potential.

For `C=C1CC[C@@H]2[C@](C)(CO)[C@H](O)CC[C@@]2(C)[C@@H]1C/C=C1/C(=O)OC[C@H]1O` [andrographolide], the “Tmax, previously reported” value [1] is given as 1.5 to 2 h, the concentration at 0 h ([2]; S1) is given as 0 ng/mL and the concentration at 0.5 h ([2]; S1) is given as 3.76 ng/mL. For the same compound, the concentration at 1 h ([2]; S1) was 2.41 ng/mL, the concentration at 1.5 h ([2]; S1) was 6.36 ng/mL and the concentration at 2 h ([2]; S1) was 5.31 ng/mL. The concentration at 2.5 h ([2]; S1) was 2.17 ng/mL, the concentration at 3 h ([2]; S1) was 3.86 ng/mL and the concentration at 3.5 h ([2]; S1) was 2.81 ng/mL. It also gave a concentration at 4 h ([2]; S1) of 0 ng/mL, a concentration at 5 h ([2]; S1) of 0 ng/mL and a concentration at 6 h ([2]; S1) of 0 ng/mL. It also gave a concentration at 8 h ([2]; S1) of 0 ng/mL, a concentration at 10 h ([2]; S1) of 0 ng/mL and a concentration at 12 h ([2]; S1) of 0 ng/mL. For the same compound, the concentration at 24 h ([2]; S1) was 0 ng/mL, the concentration at 0 h ([2]; S2) was 0 ng/mL and the concentration at 0.5 h ([2]; S2) was 0 ng/mL. For the same compound, the concentration at 1 h ([2]; S2) was 3.98 ng/mL, the concentration at 1.5 h ([2]; S2) was 5.56 ng/mL and the concentration at 2 h ([2]; S2) was 5.07 ng/mL. It also gave a concentration at 2.5 h ([2]; S2) of 3.13 ng/mL, a concentration at 3 h ([2]; S2) of 4.68 ng/mL and a concentration at 3.5 h ([2]; S2) of 0 ng/mL. For the same compound, the concentration at 4 h ([2]; S2) was 0 ng/mL, the concentration at 5 h ([2]; S2) was 0 ng/mL and the concentration at 6 h ([2]; S2) was 0 ng/mL. For the same compound, the concentration at 8 h ([2]; S2) was 0 ng/mL, the concentration at 10 h ([2]; S2) was 0 ng/mL and the concentration at 12 h ([2]; S2) was 0 ng/mL. For the same compound, the concentration at 24 h ([2]; S2) was 0 ng/mL, the concentration at 0 h ([2]; S3) was 0 ng/mL and the concentration at 0.5 h ([2]; S3) was 39.4 ng/mL. It also gave a concentration at 1 h ([2]; S3) of 13.8 ng/mL, a concentration at 1.5 h ([2]; S3) of 14.2 ng/mL and a concentration at 2 h ([2]; S3) of 4.19 ng/mL. For the same compound, the concentration at 2.5 h ([2]; S3) was 3.47 ng/mL, the concentration at 3 h ([2]; S3) was 0 ng/mL and the concentration at 3.5 h ([2]; S3) was 0 ng/mL. For the same compound, the concentration at 4 h ([2]; S3) was 0 ng/mL, the concentration at 5 h ([2]; S3) was 0 ng/mL and the concentration at 6 h ([2]; S3) was 0 ng/mL. The concentration at 8 h ([2]; S3) was 0 ng/mL, the concentration at 10 h ([2]; S3) was 0 ng/mL and the concentration at 12 h ([2]; S3) was 0 ng/mL. It also gave a concentration at 24 h ([2]; S3) of 0 ng/mL, a concentration at 0 h ([2]; S4) of 0 ng/mL and a concentration at 0.5 h ([2]; S4) of 0 ng/mL. The concentration at 1 h ([2]; S4) was 18.3 ng/mL, the concentration at 1.5 h ([2]; S4) was 22.1 ng/mL and the concentration at 2 h ([2]; S4) was 12.7 ng/mL. It also gave a concentration at 2.5 h ([2]; S4) of 5.06 ng/mL, a concentration at 3 h ([2]; S4) of 4.2 ng/mL and a concentration at 3.5 h ([2]; S4) of 2.09 ng/mL. The concentration at 4 h ([2]; S4) was 0 ng/mL.
